Several values for one entry are separate records, joined by “and”; a condition that tells them apart may be missing. Equal entries are not always repeated. Non-standard residues stand in square brackets, D forms with d. Residues, ends and D or L forms follow the SMILES beside them. pGlu = O=C1CC[C@@H](C(=O)O)N1
What was measured:
[1] = tested on: A. aegypti ACP receptor (AedaeACPR); experiment: Calcium bioluminescence (aequorin) reporter assay of heterologously expressed ACPR; format: cell-based, Aedes aegypti; conditions: for Fold-reduction in activity relative to AedaeACP: ACPR in CHO-K1 aequorin cells, relative to native Aedae-ACP; for EC50: CHO-K1 cells stably expressing aequorin, transiently transfected with ACPR and murine Gα15 (pBudCE4.1), luminescence 20 s, 3 to 4 independent biological replicates, ND = no determined EC50 due to minimal or no detectable activity up to 10 μM; for Activity on ACPR at the highest tested dose, in words: 10 μM, Figure 2, ANOVA and Tukey post-test
Source text: Therefore, to improve the bioluminescent signal linked to calcium mobilization following receptor activation, which was required in order to provide greater signal to noise ratio when testing ACP analogs with substitutions leading to intermediate levels of activation of the ACPR, we created a new mammalian expression construct using the dual promoter vector, pBudCE4.1. Specifically, we utilized a cloning strategy as reported previously ([41]) whereby the ACPR was inserted into the multiple cloning site (MCS) downstream of the CMV promoter in pBudCE4.1 using the sense primer SalI-KozakACPR, 5′-[…]-3′ and anti-sense primer XbaI-ACPR, 5′-[…]-3′, which directionally inserted the ACPR within the MCS downstream of the CMV promoter. Secondly, the murine homolog (Gα15) of the human promiscuous G protein, Gα16, which indiscriminately couples a wide variety of GPCRs to calcium signaling ([42]) was inserted into the MCS downstream of the EF1-α promoter in pBudCE4.1 using the sense primer NotI-Gα15, 5′-[…]-3′ and anti-sense primer BglII-Gα15, 5′-[…]-3′, which directionally inserted the murine Gα15 within the MCS downstream of the EF1-α promoter.
(§1) Functional activation of the AedaeACPR and AedaeAKHR-IA receptors was carried out following a previously described mammalian cell culture system involving a Chinese hamster ovary (CHO)-K1 cell line stably expressing aequorin ([43]). Cells were grown in DMEM:F12 media containing 10% heat-inactivated fetal bovine serum (Wisent, St. Bruno, QC), 200 μg/mL Geneticin, 1x antimycotic-antibiotic to approximately 90% confluency, and were transiently transfected using either Lipofectamine LTX with Plus Reagent or Lipofectamine 3000 transfection systems (Invitrogen, Burlington, ON) following manufacturer recommended DNA to transfection reagent ratios. Cells were detached from the culture flasks at 48 h post-transfection using 5 mM EDTA in Dulbecco's PBS. Cells were then prepared for the receptor functional assay following a procedure described previously ([27]). Stocks of peptide analogs of ACP and AKH were used for preparation of serial dilutions all of which were prepared in assay media (0.1% BSA in DMEM:F12) and loaded in quadruplicates into 96-well white luminescence plates (Greiner Bio-One, Germany). Cells were loaded with an automatic injector into each well of the plate containing different peptide analogs at various concentrations as well as negative control (assay media alone) and positive control wells (50 μM ATP). Immediately after injection of the cells, luminescence was measured for 20 s using a Synergy 2 Multi-Mode Microplate Reader (BioTek, Winooski, VT, USA). Calculations, including determination of EC50 values, were conducted in GraphPad Prism 7.02 (GraphPad Software, San Diego, USA) from dose-response curves from 3 to 4 independent biological replicates.

[2] = biological target: A. aegypti AKHR-IA receptor (AKHR-IA) (Aedes aegypti, UniProt A0A2P1A8S4); experiment: Calcium bioluminescence (aequorin) reporter assay of heterologously expressed AKHR-IA; format: cell-based; conditions: for Fold-reduction in activity relative to Aedae-AKH: AKHR-IA in CHO-K1 aequorin cells, relative to native Aedae-AKH; for EC50: CHO-K1 cells stably expressing aequorin, transiently transfected with AKHR-IA (pcDNA3.1+), luminescence 20 s, 3 to 4 independent biological replicates, ND = no determined EC50 due to minimal or no detectable activity up to 10 μM
Chain of A. aegypti AKHR-IA receptor (AKHR-IA) (A0A2P1A8S4 1-410): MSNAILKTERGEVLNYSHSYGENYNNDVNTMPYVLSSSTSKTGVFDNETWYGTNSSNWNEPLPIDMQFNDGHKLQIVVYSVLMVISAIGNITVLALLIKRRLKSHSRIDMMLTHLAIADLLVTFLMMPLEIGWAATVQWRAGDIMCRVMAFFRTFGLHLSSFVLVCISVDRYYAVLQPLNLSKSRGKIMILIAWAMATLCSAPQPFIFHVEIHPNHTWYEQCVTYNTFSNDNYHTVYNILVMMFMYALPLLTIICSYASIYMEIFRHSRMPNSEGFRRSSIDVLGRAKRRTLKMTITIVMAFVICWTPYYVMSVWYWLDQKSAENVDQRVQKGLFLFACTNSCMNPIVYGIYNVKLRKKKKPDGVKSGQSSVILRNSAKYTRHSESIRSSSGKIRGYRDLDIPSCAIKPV
Description: For each construct, an overnight liquid culture of clonal recombinant bacteria containing the appropriate plasmid construct was grown in antibiotic-containing LB media and used to isolate midiprep DNA using the PureLink Midiprep kit (Life Technologies, Burlington, ON). Midiprep samples were then quantified and sent for sequencing as described previously ([26], [27]).
as §1

Compound	Fold-reduction in activity relative to AedaeACP [1]	EC50 [1] [nM]	also measured
CC(C)[C@H](NC(=O)[C@@H]1CCC(=O)N1)C(=O)N[C@H](C(=O)N[C@@H](Cc1ccccc1)C(=O)N[C@@H](CO)C(=O)N[C@@H](CCCNC(=N)N)C(=O)N[C@@H](CC(=O)O)C(=O)N[C@@H](Cc1c[nH]c2ccccc12)C(N)=O)[C@@H](C)O [Aedae-ACP (1-8)] ([pGlu]VTFSRDW-NH2)	410.1 fold	2160	–
CC(C)[C@H](NC(=O)[C@@H]1CCC(=O)N1)C(=O)N[C@@H](CC(N)=O)C(=O)N[C@@H](Cc1ccccc1)C(=O)N[C@H](C(=O)N1CCC[C@H]1C(=O)N[C@@H](CO)C(=O)N[C@@H](Cc1c[nH]c2ccccc12)C(N)=O)[C@@H](C)O [Libau-AKH] ([pGlu]VNFTPSW-NH2)	–	–	Fold-reduction in activity relative to Aedae-AKH [2]: 548 fold and 547.9 fold; EC50 [2]: 1180 nM; Improved AKHR-IA activation over that achieved by Grybi-AKH ([2]; relative to Grybi-AKH): ~2 fold
CC(C)[C@H](NC(=O)[C@@H]1CCC(=O)N1)C(=O)N[C@H](C(=O)N[C@@H](Cc1ccccc1)C(=O)N[C@@H](CO)C(=O)N[C@@H](CCCNC(=N)N)C(=O)N[C@@H](CC(=O)O)C(=O)N[C@@H](Cc1c[nH]c2ccccc12)C(=O)N[C@@H](CC(N)=O)C(N)=O)[C@@H](C)O [Aedae-ACP (1-9)] ([pGlu]VTFSRDWN-NH2)	434.2 fold	4150	–
CC(C)[C@H](NC(=O)[C@@H]1CCC(=O)N1)C(=O)N[C@H](C(=O)N[C@@H](Cc1ccccc1)C(=O)N[C@@H](C)C(=O)N[C@@H](CCCNC(=N)N)C(=O)N[C@@H](CC(=O)O)C(=O)N[C@@H](Cc1c[nH]c2ccccc12)C(=O)N[C@@H](CC(N)=O)C(=O)N[C@@H](C)C(N)=O)[C@@H](C)O [Aedae-ACP (A5)] ([pGlu]VTFARDWNA-NH2)	44.9 fold	1040	–
CC[C@H](C)[C@H](NC(=O)[C@@H]1CCC(=O)N1)C(=O)N[C@H](C(=O)N[C@@H](Cc1ccccc1)C(=O)N[C@@H](CO)C(=O)N[C@@H](CCCNC(=N)N)C(=O)N[C@@H](CC(=O)O)C(=O)N[C@@H](Cc1c[nH]c2ccccc12)C(=O)N[C@@H](CC(N)=O)C(=O)N[C@@H](C)C(N)=O)[C@@H](C)O [Grybi-ACP] ([pGlu]ITFSRDWNA-NH2)	13.6 fold	326	Activity on ACPR at the highest tested dose, in words [1]: failed to reach full ACPR activation
pQLTFSSGWGNamide [Helze-AKH, naturally-occurring insect AKH decapeptide]	>1,000 fold	–	Activity on ACPR at the highest tested dose, in words [1]: low activity
CC(C)[C@H](NC(=O)[C@@H]1CCC(=O)N1)C(=O)N[C@H](C(=O)N[C@@H](Cc1ccccc1)C(=O)N[C@@H](CO)C(=O)N[C@@H](C)C(=O)N[C@@H](CC(=O)O)C(=O)N[C@@H](Cc1c[nH]c2ccccc12)C(=O)N[C@@H](CC(N)=O)C(=O)N[C@@H](C)C(N)=O)[C@@H](C)O [Aedae-ACP (A6)] ([pGlu]VTFSADWNA-NH2)	23.3 fold	687	–
CC(C)C[C@H](NC(=O)[C@@H]1CCC(=O)N1)C(=O)N[C@@H](CC(N)=O)C(=O)N[C@@H](Cc1ccccc1)C(=O)N[C@H](C(=O)N1CCC[C@H]1C(=O)N[C@@H](CO)C(=O)N[C@@H](Cc1c[nH]c2ccccc12)C(N)=O)[C@@H](C)O [Erysi-AKH] ([pGlu]LNFTPSW-NH2)	–	–	Fold-reduction in activity relative to Aedae-AKH [2]: 310 fold and 309.9 fold; EC50 [2]: 669 nM
pQLTFTSS-amide [Lacol-AKH-7mer, C-terminally truncated synthetic analog based on an endogenous peptide from Laconobia oleracea]	–	–	AKHR-IA activation at the highest tested concentration ([2]; 10 μM, luminescence relative to maximal response with 10^−5M Aedae-AKH): ~ 7%
H-AVTFSRDWNA-NH2 [Aedae-ACP (A1)]	–	1580	–
CC(C)[C@H](NC(=O)[C@@H]1CCC(=O)N1)C(=O)N[C@H](C(=O)N[C@@H](Cc1ccccc1)C(=O)N[C@@H](CO)C(=O)N[C@@H](CCCNC(=N)N)C(=O)N[C@@H](C)C(=O)N[C@@H](Cc1c[nH]c2ccccc12)C(=O)N[C@@H](CC(N)=O)C(=O)N[C@@H](C)C(N)=O)[C@@H](C)O [Aedae-ACP (A7)] ([pGlu]VTFSRAWNA-NH2)	15.9 fold	386	–
CC(C)[C@H](NC(=O)[C@@H]1CCC(=O)N1)C(=O)N[C@H](C(=O)N[C@@H](Cc1ccccc1)C(=O)N[C@H](C(=O)N1CCC[C@H]1C(=O)N[C@@H](CC(N)=O)C(=O)N[C@@H](Cc1c[nH]c2ccccc12)C(N)=O)[C@@H](C)O)[C@@H](C)O [V^2-PeramCAH-II] ([pGlu]VTFTPNW-NH2)	–	–	Fold-reduction in activity relative to Aedae-AKH [2]: 68.8 fold; Fold-reduction in activity relative to Aedae-AKH ([2]; listed as V^2-Peram-CAH-II): 69 fold; EC50 [2]: 148 nM
CC(C)C[C@H](NC(=O)[C@@H]1CCC(=O)N1)C(=O)N[C@H](C(=O)N[C@@H](Cc1ccccc1)C(=O)N[C@H](C(=O)N1CCC[C@H]1C(=O)N[C@@H](CC(N)=O)C(=O)N[C@@H](Cc1c[nH]c2ccccc12)C(N)=O)[C@@H](C)O)[C@@H](C)O [Peram-CAH-II] ([pGlu]LTFTPNW-NH2)	–	–	Fold-reduction in activity relative to Aedae-AKH [2]: 1.0 fold; EC50 [2]: 2.23 nM
pQVTFSRDANAamide [Aedae-ACP (A8), synthetic ACP analog, alanine at position 8]	>1,000 fold	–	–
pQLTFTSSWGGamide [Lacol-AKH, naturally-occurring insect AKH decapeptide]	>1,000 fold	–	Activity on ACPR at the highest tested dose, in words [1]: low activity
CC(C)[C@H](NC(=O)[C@@H]1CCC(=O)N1)C(=O)N[C@H](C(=O)N[C@@H](Cc1ccccc1)C(=O)N[C@@H](CO)C(=O)N[C@@H](CCCNC(=N)N)C(=O)N[C@@H](CC(=O)O)C(=O)N[C@@H](Cc1c[nH]c2ccccc12)C(=O)N[C@@H](C)C(=O)N[C@@H](C)C(N)=O)[C@@H](C)O [Aedae-ACP (A9)] ([pGlu]VTFSRDWAA-NH2)	0.2 fold	4.96	–
pQVTFSRDWNA-OH [Aedae-ACP (-OH), non-amidated (free acid) ACP analog]	>1,000 fold	–	–
pQ-TFSRDWNAamide [Aedae-ACP (1,3-10), internally truncated ACP analog lacking valine in the second position]	>1,000 fold	–	–
C[C@H](NC(=O)[C@H](CC(N)=O)NC(=O)[C@H](Cc1c[nH]c2ccccc12)NC(=O)[C@H](CC(=O)O)NC(=O)[C@H](CCCNC(=N)N)NC(=O)[C@H](CO)NC(=O)[C@H](Cc1ccccc1)NC(=O)[C@@H](NC(=O)[C@H](C)NC(=O)[C@@H]1CCC(=O)N1)[C@@H](C)O)C(N)=O [Aedae-ACP (A2)] ([pGlu]ATFSRDWNA-NH2)	–	705	–
CC(C)[C@H](NC(=O)[C@@H]1CCC(=O)N1)C(=O)N[C@H](C(=O)N[C@@H](Cc1ccccc1)C(=O)N[C@@H](CO)C(=O)N[C@@H](CCCNC(=N)N)C(=O)N[C@@H](CC(=O)O)C(=O)N[C@@H](Cc1c[nH]c2ccccc12)C(=O)N[C@@H](CC(N)=O)C(=O)N[C@@H](C)C(=O)NCC(N)=O)[C@@H](C)O [Aedae-ACP (+G)] ([pGlu]VTFSRDWNAG-NH2)	5.6 fold	111	–
pQLTFTPSWamide [Aedae-AKH, endogenous octapeptide adipokinetic hormone of Aedes aegypti]	–	–	Activity on ACPR at the highest tested dose, in words [1]: inactive
pQVTASRDWNAamide [Aedae-ACP (A4), synthetic ACP analog, alanine at position 4]	>1,000 fold	–	–
Ac-AVTFSRDWNA-NH2 [Aedae-ACP (A1b)]	43.6 fold	527	–
